Data published in the supplement of paper PMC10307832.

Key:
Assay in all cases: relative viability (nuclei count vs DMSO), 5 days (fraction); higher = more cells survive
[1] = compound: CN(NC(=O)CC(=O)NN(C)C(=S)c1ccccc1)C(=S)c1ccccc1 [Elesclomol] + CC(C)C[C@H](NC(=O)[C@H](Cc1ccccc1)NC(=O)c1cnccn1)B(O)O [Bortezomib] (partner 0.002 µM)
Outline: (§1)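 Relative viability was taken as the ratio of nuclei in treated wells to nuclei in vehicle wells. Lung cancer cell lines in 1536-well plates received compounds by pin tool one day after seeding, either one drug alone or a fixed anchor-drug dose plus five library-drug doses (not always all listed) in √10 steps. Nuclei were counted on 4× images after 5 days of treatment, and values are medians of duplicate plates.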

[2] = compound: CN(NC(=O)CC(=O)NN(C)C(=S)c1ccccc1)C(=S)c1ccccc1 [Elesclomol] + CS(=O)(=O)N1CCN(Cc2cc3nc(-c4cccc5[nH]ncc45)nc(N4CCOCC4)c3s2)CC1 [Pictilisib] (partner 1 µM)
Outline: as §1

[3] = compound: CN(NC(=O)CC(=O)NN(C)C(=S)c1ccccc1)C(=S)c1ccccc1 [Elesclomol] + C[C@@H](Oc1cc(-c2cnn(C3CCNCC3)c2)cnc1N)c1c(Cl)ccc(F)c1Cl [Crizotinib] (partner 1 µM)
Outline: as §1

[4] = compound: CN(NC(=O)CC(=O)NN(C)C(=S)c1ccccc1)C(=S)c1ccccc1 [Elesclomol] + C[C@]1(O)C[C@@H](c2nc(-c3ccc4ccc(-c5ccccc5)nc4c3)c3c(N)nccn32)C1 [Linsitinib] (partner 1 µM)
Outline: as §1

[5] = compound: CN(NC(=O)CC(=O)NN(C)C(=S)c1ccccc1)C(=S)c1ccccc1 [Elesclomol] + Cc1nc(NC(=O)N2CCC[C@H]2C(N)=O)sc1-c1ccnc(C(C)(C)C(F)(F)F)c1 [Alpelisib] (partner 2 µM)
Outline: as §1

Cell Line: NCI-H460
- relative viability ([1]; first compound 0.003162 µM): 0.911
- relative viability ([1]; first compound 0.01 µM): 0.292
- relative viability ([1]; first compound 0.03162 µM): 0.0099
- relative viability ([1]; first compound 0.1 µM): 0.0073
- relative viability ([2]; first compound 0.003162 µM): 0.361
- relative viability ([2]; first compound 0.01 µM): 0.291
- relative viability ([2]; first compound 0.03162 µM): 0.309
- relative viability ([2]; first compound 0.1 µM): 0.259
- relative viability ([3]; first compound 0.003162 µM): 0.624
- relative viability ([3]; first compound 0.01 µM): 0.0306
- relative viability ([3]; first compound 0.03162 µM): 0.0112
- relative viability ([3]; first compound 0.1 µM): 0.0109
- relative viability ([4]; first compound 0.003162 µM): 0.719
- relative viability ([4]; first compound 0.01 µM): 0.123
- relative viability ([4]; first compound 0.03162 µM): 0.0104
- relative viability ([4]; first compound 0.1 µM): 0.01
- relative viability ([5]; first compound 0.003162 µM): 0.434
- relative viability ([5]; first compound 0.01 µM): 0.0761
- relative viability ([5]; first compound 0.03162 µM): 0.0128
- relative viability ([5]; first compound 0.1 µM): 0.0117

Cell Line: NCI-H520
- relative viability ([1]; first compound 0.003162 µM): 0.481
- relative viability ([1]; first compound 0.01 µM): 0.248
- relative viability ([1]; first compound 0.03162 µM): 0.2
- relative viability ([1]; first compound 0.1 µM): 0.0916
- relative viability ([2]; first compound 0.003162 µM): 0.255
- relative viability ([2]; first compound 0.01 µM): 0.279
- relative viability ([2]; first compound 0.03162 µM): 0.22
- relative viability ([2]; first compound 0.1 µM): 0.132
- relative viability ([3]; first compound 0.003162 µM): 0.69
- relative viability ([3]; first compound 0.01 µM): 0.713
- relative viability ([3]; first compound 0.03162 µM): 0.233
- relative viability ([3]; first compound 0.1 µM): 0.0848
- relative viability ([4]; first compound 0.003162 µM): 1.04
- relative viability ([4]; first compound 0.01 µM): 0.912
- relative viability ([4]; first compound 0.03162 µM): 0.354
- relative viability ([4]; first compound 0.1 µM): 0.0801
- relative viability ([5]; first compound 0.003162 µM): 0.884
- relative viability ([5]; first compound 0.01 µM): 0.667
- relative viability ([5]; first compound 0.03162 µM): 0.563
- relative viability ([5]; first compound 0.1 µM): 0.0734

Cell Line: NCI-H596
- relative viability ([1]; first compound 0.003162 µM): 1
- relative viability ([1]; first compound 0.01 µM): 1.04
- relative viability ([1]; first compound 0.03162 µM): 0.95
- relative viability ([1]; first compound 0.1 µM): 0.156
- relative viability ([2]; first compound 0.003162 µM): 0.374
- relative viability ([2]; first compound 0.01 µM): 0.341
- relative viability ([2]; first compound 0.03162 µM): 0.346
- relative viability ([2]; first compound 0.1 µM): 0.218
- relative viability ([3]; first compound 0.003162 µM): 0.92
- relative viability ([3]; first compound 0.01 µM): 0.948
- relative viability ([3]; first compound 0.03162 µM): 0.95
- relative viability ([3]; first compound 0.1 µM): 0.184
- relative viability ([4]; first compound 0.003162 µM): 1.12
- relative viability ([4]; first compound 0.01 µM): 1.13
- relative viability ([4]; first compound 0.03162 µM): 0.978
- relative viability ([4]; first compound 0.1 µM): 0.267
- relative viability ([5]; first compound 0.003162 µM): 0.437
- relative viability ([5]; first compound 0.01 µM): 0.472
- relative viability ([5]; first compound 0.03162 µM): 0.458
- relative viability ([5]; first compound 0.1 µM): 0.213

Cell Line: NCI-H647
- relative viability ([1]; first compound 0.003162 µM): 0.924
- relative viability ([1]; first compound 0.01 µM): 0.773
- relative viability ([1]; first compound 0.03162 µM): 0.589
- relative viability ([1]; first compound 0.1 µM): 0.0718
- relative viability ([2]; first compound 0.003162 µM): 0.492
- relative viability ([2]; first compound 0.01 µM): 0.168
- relative viability ([2]; first compound 0.03162 µM): 0.204
- relative viability ([2]; first compound 0.1 µM): 0.0838
- relative viability ([3]; first compound 0.003162 µM): 1.1
- relative viability ([3]; first compound 0.01 µM): 0.813
- relative viability ([3]; first compound 0.03162 µM): 0.39
- relative viability ([3]; first compound 0.1 µM): 0.0391
- relative viability ([4]; first compound 0.003162 µM): 1.1
- relative viability ([4]; first compound 0.01 µM): 0.801
- relative viability ([4]; first compound 0.03162 µM): 0.753
- relative viability ([4]; first compound 0.1 µM): 0.0738
- relative viability ([5]; first compound 0.003162 µM): 1.12
- relative viability ([5]; first compound 0.01 µM): 0.998
- relative viability ([5]; first compound 0.03162 µM): 0.245
- relative viability ([5]; first compound 0.1 µM): 0.017

Cell Line: NCI-H650
- relative viability ([1]; first compound 0.003162 µM): 1.02
- relative viability ([1]; first compound 0.01 µM): 0.309
- relative viability ([1]; first compound 0.03162 µM): 0.199
- relative viability ([1]; first compound 0.1 µM): 0.198
- relative viability ([2]; first compound 0.003162 µM): 0.875
- relative viability ([2]; first compound 0.01 µM): 0.361
- relative viability ([2]; first compound 0.03162 µM): 0.276
- relative viability ([2]; first compound 0.1 µM): 0.256
- relative viability ([3]; first compound 0.003162 µM): 0.666
- relative viability ([3]; first compound 0.01 µM): 0.264
- relative viability ([3]; first compound 0.03162 µM): 0.254
- relative viability ([3]; first compound 0.1 µM): 0.256
- relative viability ([4]; first compound 0.003162 µM): 1.04
- relative viability ([4]; first compound 0.01 µM): 0.308
- relative viability ([4]; first compound 0.03162 µM): 0.304
- relative viability ([4]; first compound 0.1 µM): 0.291
- relative viability ([5]; first compound 0.003162 µM): 1.09
- relative viability ([5]; first compound 0.01 µM): 0.342
- relative viability ([5]; first compound 0.03162 µM): 0.271
- relative viability ([5]; first compound 0.1 µM): 0.237

Cell Line: NCI-H661
- relative viability ([1]; first compound 0.003162 µM): 0.635
- relative viability ([1]; first compound 0.01 µM): 0.288
- relative viability ([1]; first compound 0.03162 µM): 0.209
- relative viability ([1]; first compound 0.1 µM): 0.182
- relative viability ([2]; first compound 0.003162 µM): 0.356
- relative viability ([2]; first compound 0.01 µM): 0.373
- relative viability ([2]; first compound 0.03162 µM): 0.214
- relative viability ([2]; first compound 0.1 µM): 0.212
- relative viability ([3]; first compound 0.003162 µM): 0.991
- relative viability ([3]; first compound 0.01 µM): 0.619
- relative viability ([3]; first compound 0.03162 µM): 0.361
- relative viability ([3]; first compound 0.1 µM): 0.283
- relative viability ([4]; first compound 0.003162 µM): 0.55
- relative viability ([4]; first compound 0.01 µM): 0.242
- relative viability ([4]; first compound 0.03162 µM): 0.169
- relative viability ([4]; first compound 0.1 µM): 0.145
- relative viability ([5]; first compound 0.003162 µM): 0.619
- relative viability ([5]; first compound 0.01 µM): 0.387
- relative viability ([5]; first compound 0.03162 µM): 0.2
- relative viability ([5]; first compound 0.1 µM): 0.234

Cell Line: NCI-H727
- relative viability ([1]; first compound 0.003162 µM): 0.679
- relative viability ([1]; first compound 0.01 µM): 0.405
- relative viability ([1]; first compound 0.03162 µM): 0.185
- relative viability ([1]; first compound 0.1 µM): 0.0498
- relative viability ([2]; first compound 0.003162 µM): 0.331
- relative viability ([2]; first compound 0.01 µM): 0.226
- relative viability ([2]; first compound 0.03162 µM): 0.158
- relative viability ([2]; first compound 0.1 µM): 0.0437
- relative viability ([3]; first compound 0.003162 µM): 0.681
- relative viability ([3]; first compound 0.01 µM): 0.453
- relative viability ([3]; first compound 0.03162 µM): 0.096
- relative viability ([3]; first compound 0.1 µM): 0.0428
- relative viability ([4]; first compound 0.003162 µM): 0.297
- relative viability ([4]; first compound 0.01 µM): 0.217
- relative viability ([4]; first compound 0.03162 µM): 0.117
- relative viability ([4]; first compound 0.1 µM): 0.0471
- relative viability ([5]; first compound 0.003162 µM): 0.545
- relative viability ([5]; first compound 0.01 µM): 0.258
- relative viability ([5]; first compound 0.03162 µM): 0.117
- relative viability ([5]; first compound 0.1 µM): 0.0342

Cell Line: NCI-H838
- relative viability ([1]; first compound 0.003162 µM): 0.825
- relative viability ([1]; first compound 0.01 µM): 0.581
- relative viability ([1]; first compound 0.03162 µM): 0.621
- relative viability ([1]; first compound 0.1 µM): 0.609
- relative viability ([2]; first compound 0.003162 µM): 0.465
- relative viability ([2]; first compound 0.01 µM): 0.413
- relative viability ([2]; first compound 0.03162 µM): 0.439
- relative viability ([2]; first compound 0.1 µM): 0.357
- relative viability ([3]; first compound 0.003162 µM): 0.833
- relative viability ([3]; first compound 0.01 µM): 0.745
- relative viability ([3]; first compound 0.03162 µM): 0.691
- relative viability ([3]; first compound 0.1 µM): 0.414
- relative viability ([4]; first compound 0.003162 µM): 1.02
- relative viability ([4]; first compound 0.01 µM): 0.907
- relative viability ([4]; first compound 0.03162 µM): 0.879
- relative viability ([4]; first compound 0.1 µM): 0.688
- relative viability ([5]; first compound 0.003162 µM): 1.13
- relative viability ([5]; first compound 0.01 µM): 0.892
- relative viability ([5]; first compound 0.03162 µM): 0.967
- relative viability ([5]; first compound 0.1 µM): 0.706
